We go through 4 molecules from ChEMBL document CHEMBL1153245, “A profile of the in vitro anti-tumor activity of imidazolium-based ionic liquids” (2010).

Holding throughout (assay type): functional
Experiment [1] deals with EKVX. In words: Anticancer activity against human EKVX cells assessed cell growth at 10 uM after 48 hrs by sulforhodamine B assay relative to control.
The test system of the next experiment is NCI/ADR-RES. Nature of the experiment: Anticancer activity against human NCI/ADR-RES cells after 48 hrs by sulforhodamine B assay. As to conditions: Homo sapiens, NCI/ADR-RES, 48 h.
Experiment [2] is described as follows: Anticancer activity against human […] cells after 48 hrs by sulforhodamine B assay. As to conditions: Homo sapiens, RPMI8266, 48 h.
The next experiment concerns MOLT-4. In words: Anticancer activity against human MOLT4 cells after 48 hrs by sulforhodamine B assay. To be noted: Homo sapiens, MOLT-4, 48 h.
A further experiment has as its system OVCAR-4. In words: Anticancer activity against human OVCAR4 cells after 48 hrs by sulforhodamine B assay. As to conditions: Homo sapiens, OVCAR-4, 48 h.
A further experiment has as its system HCT-15. In words: Anticancer activity against human HCT15 cells after 48 hrs by sulforhodamine B assay. To be noted: Homo sapiens, HCT-15, 48 h.
For another experiment, the system named is BT-549. Nature of the experiment: Anticancer activity against human BT549 cells after 48 hrs by sulforhodamine B assay. To be noted: Homo sapiens, BT-549, 48 h.
For another experiment, the system named is SF-268. Nature of the experiment: Anticancer activity against human SF268 cells after 48 hrs by sulforhodamine B assay. To be noted: Homo sapiens, SF-268, 48 h.
The subject of another experiment is OVCAR-5. Nature of the experiment: Anticancer activity against human OVCAR5 cells after 48 hrs by sulforhodamine B assay. To be noted: Homo sapiens, OVCAR-5, 48 h.
Another experiment relates to ACHN. Nature of the experiment: Anticancer activity against human ACHN cells after 48 hrs by sulforhodamine B assay. As to conditions: Homo sapiens, ACHN, 48 h.
In another experiment the test system is SK-MEL-5. Nature of the experiment: Anticancer activity against human SK-MEL-5 cells after 48 hrs by sulforhodamine B assay. To be noted: Homo sapiens, SK-MEL-5, 48 h.
The test system of another experiment is MDA-MB-435. In words: Anticancer activity against human MDA-MB-435 cells after 48 hrs by sulforhodamine B assay. To be noted: Homo sapiens, MDA-MB-435, 48 h.
Another experiment has as its system T47D. Nature of the experiment: Anticancer activity against human T47D cells after 48 hrs by sulforhodamine B assay. As to conditions: Homo sapiens, T47D, 48 h.
The test system of a further experiment is A549. In words: Anticancer activity against human A549 cells after 48 hrs by sulforhodamine B assay. As to conditions: Homo sapiens, A549, 48 h.
A further experiment deals with CAKI-1. Nature of the experiment: Anticancer activity against human Caki1 cells after 48 hrs by sulforhodamine B assay. As to conditions: Homo sapiens, CAKI-1, 48 h.
A further experiment relates to SNB-19. In words: Anticancer activity against human SNB19 cells after 48 hrs by sulforhodamine B assay. To be noted: Homo sapiens, SNB-19, 48 h.
For another experiment, the system named is IGROV-1. Nature of the experiment: Anticancer activity against human IGROV1 cells after 48 hrs by sulforhodamine B assay. To be noted: IGROV-1, 48 h.
A further experiment deals with 786-0. In words: Anticancer activity against human 786-0 cells after 48 hrs by sulforhodamine B assay. To be noted: Homo sapiens, 786-0, 48 h.
A further experiment concerns Malme-3M. Nature of the experiment: Anticancer activity against human MALME-3M cells after 48 hrs by sulforhodamine B assay. As to conditions: Homo sapiens, Malme-3M, 48 h.
For experiment [3], the system named is EKVX. Nature of the experiment: Anticancer activity against human EKVX cells after 48 hrs by sulforhodamine B assay. To be noted: Homo sapiens, EKVX, 48 h.
The test system of another experiment is SK-MEL-28. Nature of the experiment: Anticancer activity against human SK-MEL-28 cells after 48 hrs by sulforhodamine B assay. To be noted: Homo sapiens, SK-MEL-28, 48 h.
In another experiment the test system is NCI-H522. Nature of the experiment: Anticancer activity against human NCI-H522 cells after 48 hrs by sulforhodamine B assay. To be noted: Homo sapiens, NCI-H522, 48 h.
For a further experiment, the system named is HL-60(TB). Nature of the experiment: Anticancer activity against human HL-60(TB) cells after 48 hrs by sulforhodamine B assay. As to conditions: Homo sapiens, HL-60, 48 h.
Another experiment relates to NCI-H322M. In words: Anticancer activity against human NCI-H322M cells after 48 hrs by sulforhodamine B assay. To be noted: Homo sapiens, NCI-H322M, 48 h.
The next experiment has as its system CCRF-CEM. In words: Anticancer activity against human CCRF-CEM cells after 48 hrs by sulforhodamine B assay. To be noted: Homo sapiens, CCRF-CEM, 48 h.
The next experiment concerns K562. Nature of the experiment: Anticancer activity against human K562 cells after 48 hrs by sulforhodamine B assay. To be noted: Homo sapiens, K562, 48 h.
For another experiment, the system named is UACC-62. Nature of the experiment: Anticancer activity against human UACC62 cells after 48 hrs by sulforhodamine B assay. As to conditions: Homo sapiens, UACC-62, 48 h.
For the next experiment, the system named is SF-539. In words: Anticancer activity against human SF539 cells after 48 hrs by sulforhodamine B assay. To be noted: Homo sapiens, SF-539, 48 h.
The next experiment has as its system MDA-MB-231. Nature of the experiment: Anticancer activity against human MDA-MB-231 cells after 48 hrs by sulforhodamine B assay. To be noted: Homo sapiens, MDA-MB-231, 48 h.
For another experiment, the system named is SK-MEL-2. Nature of the experiment: Anticancer activity against human SK-MEL-2 cells after 48 hrs by sulforhodamine B assay. To be noted: SK-MEL-2, 48 h.
A further experiment concerns LOX IMVI. In words: Anticancer activity against human LOXIMVI cells after 48 hrs by sulforhodamine B assay. To be noted: Homo sapiens, LOX IMVI, 48 h.
The next experiment concerns HT-29. Nature of the experiment: Anticancer activity against human HT-29 cells after 48 hrs by sulforhodamine B assay. As to conditions: Homo sapiens, HT-29, 48 h.
Experiment [4] is described as follows: Anticancer activity against human Hs 578T cells after 48 hrs by sulforhodamine B assay. To be noted: Homo sapiens, Hs-578T, 48 h.
The mark [5] stands for this setting: read-out: LC50 (the source's name).

SMILES strings stand for the structures.

On to `Cn1cc[n+](CCO)c1.O=S(=O)([N-]S(=O)(=O)C(F)(F)F)C(F)(F)F`, for which the Activity in the experiment on EKVX [1] was determined as 100.51%.

As to `Cn1cc[n+](Cc2ccccc2)c1.F[P-](F)(F)(F)(F)F`, in the experiment with EKVX [1], the Activity is 102.53%.

On to `CCCCCCCCCCCCCCCCCC[n+]1ccn(C)c1.O=S(=O)([N-]S(=O)(=O)C(F)(F)F)C(F)(F)F`, for which the GI50 with NCI/ADR-RES was found to be 1240 nM; in [2], 62 nM; in the experiment on MOLT-4 it was 650 nM; in the experiment on OVCAR-4, 351 nM; in the experiment on HCT-15, 1070 nM; in the experiment on BT-549 it was 1060 nM. Also, the GI50 amounted to 1140 nM with SF-268; 909 nM with OVCAR-5; 920 nM in the experiment with ACHN; 532 nM in the experiment with SK-MEL-5; 1080 nM with MDA-MB-435; 600 nM in the experiment on T47D. For the same molecule, the GI50 worked out at 1180 nM in the experiment on A549; 263 nM with CAKI-1; 1180 nM in the experiment with SNB-19; 516 nM in the experiment on IGROV-1; 952 nM in the experiment on 786-0; 454 nM in the experiment with Malme-3M. Moreover, the GI50 was 673 nM in the experiment with EKVX [3]; 1140 nM in the experiment with SK-MEL-28; 1020 nM in the experiment with NCI-H522; 293 nM in the experiment with HL-60(TB); 1520 nM in the experiment on NCI-H322M; 458 nM in the experiment on CCRF-CEM. The 50% growth inhibitory concentration (GI50) in the experiment on K562 amounted to 312 nM; in the experiment with UACC-62 it was 1040 nM; with SF-539, 937 nM; in the experiment with MDA-MB-231, 1040 nM; with SK-MEL-2, 2090 nM; in the experiment on LOX IMVI, 406 nM. In addition, the GI50 with HT-29 came to 378 nM; in [4] it was 546 nM. In addition, the median lethal concentration (LC50) was 9410 nM in the experiment with NCI/ADR-RES; over 100000 nM in the experiment with MOLT-4; 4780 nM in the experiment with ACHN; 6720 nM in the experiment with CAKI-1; 6510 nM with SK-MEL-28; over 100000 nM with NCI-H522. Also, the LC50 with NCI-H322M was 6400 nM; in the experiment on CCRF-CEM, over 100000 nM; with UACC-62, 5100 nM; in the experiment on SK-MEL-2 it was over 100000 nM. Besides, the CC50 in experiment [2] (setting [5]) was over 100000 nM; in the experiment on OVCAR-4 (setting [5]) it was over 100000 nM; in the experiment on HCT-15 (setting [5]), 5940 nM; with BT-549 (setting [5]), 5950 nM; with SF-268 (setting [5]) it was 6290 nM; in the experiment with OVCAR-5 (setting [5]), 9140 nM. Also, the CC50 with SK-MEL-5 (setting [5]) is 4210 nM; in the experiment on MDA-MB-435 (setting [5]), 6690 nM; in the experiment with T47D (setting [5]), over 100000 nM; with SNB-19 (setting [5]), 4950 nM; in the experiment on IGROV-1 (setting [5]) it was over 100000 nM; in the experiment with EKVX [3] (setting [5]), 5760 nM. The CC50 with HL-60(TB) (setting [5]) is over 100000 nM; in the experiment on K562 (setting [5]) it was over 100000 nM; in the experiment on MDA-MB-231 (setting [5]), 5930 nM; with LOX IMVI (setting [5]), 5240 nM; with HT-29 (setting [5]), 9130 nM; in [4] (setting [5]), 8480 nM. Moreover, the LC50 (concentration killing 50% of cells) in the experiment on A549 was over 100000 nM; in the experiment with Malme-3M, 5080 nM. The molecule further yielded an LC50 (50% lethal concentration) in the experiment with 786-0 of over 100000 nM. Also, the LC50 (lethal concentration, 50% cell kill) with SF-539 turned out to be 5280 nM.

`COCC[n+]1ccn(C)c1.O=S(=O)([N-]S(=O)(=O)C(F)(F)F)C(F)(F)F` displayed an Activity in the experiment on EKVX [1] of 108.75%.
